According to patent US7670613B2, “Androgen modulators” (Pfizer Inc., priority 2004, dated 2010):
Residue numbers refer to the chain shown, from its start. Like-named read-outs stand apart in the source and are kept apart here.

Key:
hAR = target: T1, hAR (Homo sapiens, UniProt P10275); assay: Competitive binding analysis on baculovirus/Sf9 generated hAR extracts with 3H-DHT tracer; conditions: 1 nM 3H-DHT, one hour at 4° C., mean of multiple tests
T1 construct: made in house; host or cells: baculovirus/Sf9 insect cells
T1 sequence (P10275 1-920): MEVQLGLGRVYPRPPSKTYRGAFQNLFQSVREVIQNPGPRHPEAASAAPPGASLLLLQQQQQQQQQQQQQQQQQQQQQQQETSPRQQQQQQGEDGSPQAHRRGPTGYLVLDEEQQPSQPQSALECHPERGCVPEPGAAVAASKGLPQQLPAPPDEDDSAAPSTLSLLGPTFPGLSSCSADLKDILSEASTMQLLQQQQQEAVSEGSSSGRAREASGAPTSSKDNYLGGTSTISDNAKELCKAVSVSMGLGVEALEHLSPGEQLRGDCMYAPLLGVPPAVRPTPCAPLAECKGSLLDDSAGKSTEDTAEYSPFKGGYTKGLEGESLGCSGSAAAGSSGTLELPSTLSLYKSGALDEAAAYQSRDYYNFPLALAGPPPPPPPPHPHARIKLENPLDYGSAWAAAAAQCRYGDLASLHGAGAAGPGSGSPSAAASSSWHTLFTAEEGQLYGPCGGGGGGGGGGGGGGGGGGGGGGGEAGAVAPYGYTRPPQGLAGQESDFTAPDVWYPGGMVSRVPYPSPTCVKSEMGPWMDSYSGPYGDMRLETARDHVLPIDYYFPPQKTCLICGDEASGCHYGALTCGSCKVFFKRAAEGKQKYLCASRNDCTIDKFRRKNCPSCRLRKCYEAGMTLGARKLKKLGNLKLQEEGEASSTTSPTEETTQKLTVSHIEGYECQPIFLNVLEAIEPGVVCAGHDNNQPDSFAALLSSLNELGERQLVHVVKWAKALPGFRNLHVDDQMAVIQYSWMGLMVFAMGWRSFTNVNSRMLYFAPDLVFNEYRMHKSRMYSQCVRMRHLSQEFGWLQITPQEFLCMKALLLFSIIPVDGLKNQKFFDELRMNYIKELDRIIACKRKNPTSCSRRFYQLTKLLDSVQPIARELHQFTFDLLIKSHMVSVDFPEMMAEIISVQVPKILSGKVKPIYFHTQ
Experimental: The description below describes how the assay was carried out.
Competitive binding analysis was performed on baculovirus/Sf9 generated hAR extracts in the presence or absence of different concentrations of test agent and a fixed concentration of ^3H-dihydrotestosterone (^3H-DHT) as tracer. This binding assay method is a modification of a protocol previously described (Liao S., et. al. J. Steroid Biochem. 20:11-17 1984). Briefly, progressively decreasing concentrations of compounds are incubated in the presence of hAR extract (Chang et al. P.N.A.S. Vol. 89, pp. […], 1992), hydroxylapatite, and 1 nM ^3H-DHT for one hour at 4° C. Subsequently, the binding reactions are washed three times to completely remove excess unbound ^3H-DHT. hAR bound ^3H-DHT levels are determined in the presence of compounds (i.e. competitive binding) and compared to levels bound when no competitor is present (i.e. maximum binding). Compound binding affinity to the hAR is expressed as the concentration of compound at which one half of the maximum binding is inhibited.

androgen receptor = target: T2, androgen receptor (Homo sapiens, UniProt P10275, Q868H); assay: AR antagonist cell assay (MDA-MB453-MMTV clone 54-19, luciferase reporter); type: cell-based; conditions: 100 pM DHT, 17 hr, mean of multiple tests
T2 construct: a human breast tumor cell line expressing androgen receptor; endogenous in cells; host or cells: MDA-MB453-MMTV clone 54-19 (only the MMTV-luciferase reporter was transfected)
T2 sequence (P10275 1-920 Q868H): T1 sequence (P10275 1-920) with Q868H
Experimental: The compounds ability to antagonize the effects of androgen on the androgen receptor were determined in a whole cell assay as described immediately below.
Experimental Procedure for AR Antagonist Cell Assay
This cell line is a stable transfected cell line with MDA-MB453 cell background (a human breast tumor cell line expressing androgen receptor). A MMTV minimal promoter containing ARE was first cloned in front of a firefly luciferase reporter gene. Then the cascade was cloned into transfection vector pUV120puro. Electroporation method was used for transfecting MDA-MB-453 cell. Puromycin resistant stable cell line was selected.
Cell Culture Media and Reagents:
Culture medium: DMEM (high glucose, Gibco cat #: 11960-044), 10% FBS, and 1% L-glutamine
Plating medium: DMEM (phenol red free), 10% charcoal treated HyClone serum, 1% L-glutamine
Assay medium: DMEM (phenol red free), 1% charcoal treated HyClone serum, 1% L-glutamine, and 1% penicillin/streptomycin
3× luciferase buffer: 2% beta-mercaptoethanol, 0.6% ATP, 0.0135% luciferine in cell lysis buffer
• 1. Cells are maintained in culture medium, splitting cells when they reach 80-90% confluence • 2. To test compounds, 10,000 cells/well are plated to opaque 96 cell culture plate in 100 ul/well plating medium, culture for overnight at 37° C. in cell culture incubator • 3. Carefully remove plating medium, then add 80 ul/well of pre-warmed assay medium, add 10 ul/well testing compound (final concentration at) 1000 nM, 200 nM, 40 nM, 8 nM, 1.6 nM, and 0.32 nM), incubate at 37° C. for 30 minutes • 4. Add 10 ul/well freshly prepared DHT (final concentration at 100 pM) to each well, incubate at 37° C. for 17 hr (overnight) • 5.
The results are reported as the mean of multiple tests as described below (the numbers of tests are indicated in the footnote). N.D. denotes that the compound was not tested.

[1] = MDA-MB453-MMTV clone 54-19 cells, read-out: AR Cell IC50
[2] = hAR extract, read-out: AR Binding IC50
[3] = AR Cell IC50, MDA-MB453-MMTV clone 54-19 cells

| SMILES | IC50 (hAR; AR Binding IC50, hAR extract) | IC50 (androgen receptor; [1]) | IC50 (hAR; [2]) | IC50 (androgen receptor; [3]) |
| --- | --- | --- | --- | --- |
| CCC1CCCCC1Oc1ccc(C#N)c(Cl)c1 (stereo not drawn) [Example 22, 2-Chloro-4-(2-ethyl-cyclohexyloxy)-benzonitrile] | 71 nM | > 1000 nM |  |  |
| C[C@H]1CCCC[C@@H]1Oc1ccc(C#N)c(Cl)c1 [Example 41, (1S,2S)-2-Chloro-4-(2-methyl-cyclohexyloxy)-benzonitrile] | 18 nM | 46 nM |  |  |
| CO[C@H]1CCCC[C@H]1Oc1ccc(C#N)c(Cl)c1 (relative stereo) [Example 36, 2-Chloro-4-(cis-2-methoxy-cyclohexyloxy)-benzonitrile] | 123 nM | 300 nM |  |  |
| C[C@H]1CC[C@@H](Oc2ccc(C#N)c(Cl)c2)CC1 [Example 31, 2-Chloro-4-(4-cis-methyl-cyclohexyloxy)-benzonitrile] |  |  | 212 nM | 66 nM |
| N#Cc1ccc(OC2CCCCC2)cc1Cl [Example 45, 2-Chloro-4-cyclohexyloxy-benzonitrile] |  | 147 nM | 196 nM |  |
| CCC1CCCCC1Oc1ccc(C#N)c(C(F)(F)F)c1 (stereo not drawn) [Example 7, 4-(2-Ethyl-cyclohexyloxy)-2-trifluoromethyl-benzonitrile] |  | 329 nM | 125 nM |  |
| CC1CCCC(Oc2ccc(C#N)cc2Cl)C1C (single isomer, unassigned) [Example 64, 3-Chloro-4-(2,3-dimethyl-cyclohexyloxy)-benzonitrile] |  | 217 nM | 119 nM |  |
| CCCCC1(Oc2ccc(C#N)c(Cl)c2)CCCC1 [Example 21, 4-(1-Butyl-cyclopentyloxy)-2-chloro-benzonitrile] |  | > 1000 nM | 206 nM |  |
| CC1CCC(Oc2ccc(C#N)c(Cl)c2)C1 (stereo not drawn) [Example 23, 2-Chloro-4-(3-methyl-cyclopentyloxy)-benzonitrile] |  | 202 nM | 145 nM |  |
| N#Cc1ccc(OC2CCCC(O)C2)cc1Cl (stereo not drawn) [Example 26, 2-Chloro-4-(3-hydroxy-cyclohexyloxy)-benzonitrile] |  |  | 404 nM | 46 nM |
| C=C(C)[C@H]1CC[C@H](C)[C@@H](Oc2ccc(C#N)c(Cl)c2)C1 [Example 49, (1S,2S,5S)-2-Chloro-4-(5-isopropenyl-2-methyl-cyclohexyloxy)-benzonitrile] | 10 nM | 49 nM |  |  |
| C=CCO[C@H]1CCCC[C@@H]1Oc1ccc(C#N)c(C(F)(F)F)c1 [Example 71, (1S,2S)-4-(2-Allyloxy-cyclohexyloxy)-2-trifluoromethyl-benzonitrile] |  |  | 374 nM | 23 nM |
| CC1CCCC(C)C1Oc1ccc(C#N)c(Cl)c1 (stereo not drawn) [Example 53, 2-Chloro-4-(2,6-dimethyl-cyclohexyloxy)-benzonitrile] | 33 nM | > 1000 nM |  |  |
| N#Cc1ccc(O[C@@H]2CCCC[C@H]2C#N)cc1Cl [Example 50, (1R,2S)-2-Chloro-4-(2-cyano-cyclohexyloxy)-benzonitrile] | 17 nM | 202 nM |  |  |
| CC(C)[C@H]1CC[C@H](C)C[C@@H]1Oc1ccc(C#N)c(Cl)c1 [Example 47, (1S,2R,5S)-2-Chloro-4-(2-isopropyl-5methyl-cyclohexyloxy)-benzonitrile] |  | 750 nM | 107 nM |  |
| CO[C@H]1CCCC[C@@H]1Oc1ccc(C#N)c(C(F)(F)F)c1 (relative stereo) [Example 70] |  |  | 158 nM | 10 nM |
| N#Cc1ccc(OC2CCCC2)cc1Cl [Example 46, 2-Chloro-4-cyclopentyloxy-benzonitrile] | 49 nM | 18 nM |  |  |
| N#Cc1ccc(OC2CCCCCC2)c(Cl)c1 [Example 43, 3-Chloro-4-cycloheptyloxy-benzonitrile] |  | 12 nM | 289 nM |  |
| CC1CCCC(C)C1Oc1ccc(C#N)c(C(F)(F)F)c1 (stereo not drawn) [Example 12, 4-(2,6-Dimethyl-cyclohexyloxy)-2-trifluoromethyl-benzonitrile] | 73 nM | > 1000 nM |  |  |
| N#Cc1ccc(O[C@@H]2CC3CC[C@@H]2C3)cc1Cl (stereo in doubt) [Example 25, 4-(S)-(Bicyclo[2.2.1]hept-2-yloxy)-2-chloro-benzonitrile] | 82 nM | < 0.32 nM |  |  |
| N#Cc1ccc(OC2CC3CCC2C3)cc1Cl (stereo not drawn) [Example 62, 4-(Bicyclo[2.2.1]hept-2-yloxy)-2-chloro-benzonitrile] | 46 nM | < 0.32 nM |  |  |
| N#Cc1ccc(OC2CCCC2)cc1C(F)(F)F [Example 10] |  | 605 nM | 156 nM |  |
| N#Cc1ccc(O[C@@H]2CCCC[C@H]2C#N)cc1C(F)(F)F (single isomer, unassigned) [Example 73, (trans)-(+)-4-(2-Cyano-cyclohexyloxy)-2-trifluoromethyl-benzonitrile] | 61 nM | 196 nM |  |  |
| C[C@@H]1CCCC[C@@H]1Oc1ccc(C#N)c(C(F)(F)F)c1 [Example 9, (1S,2R)-4-(2-Methyl-cyclohexyloxy)-2-trifluoromethyl-benzonitrile] | 22 nM | 751 nM |  |  |
